The IC50 is the midpoint of a concentration-inhibition curve.

Calls of active or inactive are those of the source. The rule behind the calls is not given here.

This test has as its system S. cerevisiae tim10-1 mutant growth, luminescence. Briefly: growth inhibitors of tim10-1 mutant yeast, dose response, luminescence, S. cerevisiae, uHTS hits (AID 493003).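 Note: yeast growth measured after about 22 hours at 25 °C.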
With `CCOc1ccc(-c2n[nH]c(C)c2Oc2ccc(OC)cc2)c(O)c1`, the IC50 is 16.4 µM. Regarding `CCOC(=O)c1sc(=S)n(Cc2ccccc2)c1N`, the half-maximal inhibitory concentration (IC50) is 50.4 µM. As for `O=C(c1ccc2c(c1)OCCO2)N1CCN(c2ncc(C(F)(F)F)cc2Cl)CC1`, the half-inhibitory concentration (IC50) is 68.8 µM. Regarding `Cc1ccc(C(=O)c2no[n+]([O-])c2C(=O)c2ccc(C)cc2)cc1`, the 50% inhibitory concentration (IC50) is 15.3 µM. As for `Cc1nonc1C(=O)N/N=C/c1ccc(O)cc1`, the figure is 30.3 µM; as for `S=C(Nc1ccc(Cl)cc1)c1nc2ccccc2[nH]1`, 23.7 µM.

For `CCc1ccc(NC(=S)N(Cc2ccccc2)Cc2ccccn2)cc1`, the half-maximal inhibitory concentration (IC50) was 38 µM.

On to `COc1cccc(Nc2ncccc2C(=O)Nc2ccccc2)c1`, for which the 50% inhibitory concentration (IC50) was 31.7 µM.

For `N/C(=N\OC(=O)c1cccnc1)c1ccc(Cl)cc1Cl`, the IC50 was 17.8 µM. As for `COc1ccccc1N1C(=O)CC(Sc2n[nH]c(-c3cccc(C)c3)n2)C1=O` (stereo unspecified), the figure is 7.68 µM; as for `CC1CCCCN1S(=O)(=O)c1ccc(NC(=O)c2ccco2)cc1` (stereo unspecified), 22.7 µM. As for `Cc1ccc(NC(=S)/N=C(\N)Nc2nc(C)c3cc(C)ccc3n2)c(C)c1`, the figure is 12.7 µM. As for `COc1ccc(/C=N/n2c(=S)n(C)c3ccccc32)cc1OC`, the figure is 36.1 µM; as for `CN1CCc2c(C#N)c(N3CCCCC3)nc(NCc3ccccc3)c2C1`, 16 µM. For `N#C/C(=C\c1ccccc1)C(=O)Nc1cc(S(=O)(=O)N2CCOCC2)ccc1N1CCCC1`, the IC50 is 31.3 µM. For `N=c1c2c(-c3ccccc3)c(-c3ccccc3)n(Cc3ccccc3)c2ncn1CCO` the value was 23.8 µM; for `OCCN1CCN(CCCN2c3ccccc3Sc3ccc(C(F)(F)F)cc32)CC1`, 31.3 µM; for `COc1ccc(Sc2cnn(-c3ccccc3)c(=O)c2Cl)cc1`, 35.6 µM. For `CN(C)CCCN(C(=O)c1cc2cc([N+](=O)[O-])ccc2s1)c1nc2cc3c(cc2s1)OCCO3` the value was 13.7 µM; for `Cc1ccc(NC(=S)Nc2ccc(Cl)c(Cl)c2)c(OC(F)F)c1`, 14 µM; for `O=C(OCn1ncc(Br)c(Br)c1=O)c1ccccc1Cl`, 6.12 µM. For `COc1cccc2sc(Nc3nc(-c4ccccn4)cs3)nc12` the value was 20.2 µM; for `CCCCCCCCCCOC(=O)Cn1c(COc2ccccc2OC)[n+](C)c2ccccc21`, 10.9 µM; for `COc1ccc(NCc2nnc(SCc3ccc(Cl)cc3)n2-c2ccccc2)cc1`, 17.4 µM. As for `CC1CCCCN1S(=O)(=O)c1ccc2c(c1)CCN2C(=O)C1CCC1` (stereo unspecified), the half-maximal inhibitory concentration (IC50) is 61.7 µM.

As for `COc1ccccc1C/C(N)=N/OC(=O)c1ccco1`, the concentration for half-maximal inhibition (IC50) is 37.3 µM. For `Cn1c(-c2ccccc2O)cc2ccccc21` the value was 29.5 µM; for `O=C(O/N=C(/c1ccccc1)c1ccncc1)c1ccccc1[N+](=O)[O-]`, 29 µM. For `CCCn1c(CC)nc([N+](=O)[O-])c1S(=O)(=O)c1ccccc1` the value was 13.1 µM; for `O=C(C1CCC1)N1CCc2cc(S(=O)(=O)N3CCN(c4ccccn4)CC3)ccc21`, 24.3 µM. For `CN(C1CCCCC1)S(=O)(=O)c1ccc(NC(=O)c2ccc(Br)o2)cc1` the value was 30.6 µM; for `CNC(=O)c1ccsc1NC(=O)c1ccc(Cl)s1`, 64.7 µM; for `S=c1[nH]nc(CSc2nc3ccccc3s2)n1C1CCCCC1`, > 100 µM (inactive). Turning to `COc1ccc2sc(N(CCCN(C)C)C(=O)c3ccc(S(=O)(=O)N4CCCc5ccccc54)cc3)nc2c1`, the IC50 was 16.4 µM. As for `CCOc1ccc(NC(=O)c2cccc3c2C(=O)N(Cc2cccnc2)C3)cc1`, the figure is 22.8 µM; as for `Nc1ccccc1C(=O)/C=C/c1ccc2c(c1)OCO2`, 14.8 µM. For `Cn1ncc2c(Nc3ccc(Br)cc3)nc(Nc3ccc(Br)cc3)nc21` the value was 18.7 µM; for `COc1ccc(NC2CCN(C3CC(=O)N(c4ccc(F)c(Cl)c4)C3=O)CC2)cc1` (stereo unspecified), 10.4 µM; for `CCSc1ccc2c(c1)N(CCCN1CCN(C)CC1)c1ccccc1S2`, 24.9 µM. For `CC1CCN(C(=S)c2cn(Cc3ccccc3F)c3ccccc23)CC1` the value was 35.4 µM.

Regarding `Cc1ccccc1/C=C/C(=O)c1ccc([N+](=O)[O-])o1`, the IC50 is 3.76 µM. As for `C/C(CC(=O)Nc1ccc(N(C)C)cc1)=N\NC(=O)c1ccccn1`, the figure is 54.5 µM; as for `CCN1CCN(c2cc(N3CCc4ccccc4C3)c(F)cc2[N+](=O)[O-])CC1`, 29 µM. Take `Cc1nc2ccc(Nc3nc4cc(S(=O)(=O)N5CCOCC5)ccc4o3)cc2s1`: the IC50 was 19.4 µM. For the molecule `Fc1ccccc1CNc1ccc(Cl)c(Cl)c1`, the IC50 is 26.9 µM. On to `N/C(=N\OC(=O)CCC1CCCC1)c1ccc([N+](=O)[O-])cc1`, for which the IC50 was 16.9 µM. For `Fc1ccccc1CNc1cc(Cl)cc(Cl)c1` the value was 26 µM; for `CC(C)(C)C(=O)NCCN1C(=O)S/C(=C\c2ccc([N+](=O)[O-])cc2)C1=O`, 32.3 µM. For `C/C(=N\O)c1cc(Cl)cc(Cl)c1O` the value was 15 µM. As for `CC(C)(C)c1ccc(-c2cc(-c3ccccc3O)[nH]n2)cc1`, the figure is 38.9 µM; as for `CCOC(=O)c1ccc(N=c2ssnc2Cl)cc1`, 10.4 µM. In the case of `Cc1cc(C)n(-c2nc(-n3nc(C)cc3C)c3c4c(sc3n2)COC(C)(C)C4)n1`, the IC50 was 19.1 µM. In the case of `CCOC(=O)/C=C/C(=O)Nc1cccc([N+](=O)[O-])c1`, the IC50 was 7.03 µM.

On to `c1ccc(Nc2cccc(Nc3ccccc3)n2)cc1`, for which the half-maximal inhibitory concentration (IC50) is 14.2 µM.

Regarding `Oc1ccc(-c2nccc(-c3ccc(Cl)cc3)n2)cc1`, the half-inhibitory concentration (IC50) is 24.6 µM. For `N#Cc1c(N)nc(SCC(=O)C23CC4CC(CC(C4)C2)C3)c(C#N)c1-c1ccc(Cl)cc1` the value was 41.6 µM.

Values taken from PubChem BioAssay AID493003 (Sanford-Burnham Center for Chemical Genomics, 2010).
